# Measurements published in US5602099A, “δ opioid receptor antagonists” (Aktiebolaget Astra, priority 1993, dated 1997).
# Where two headings read alike, the source gives them in different places. Peptide text beside a SMILES is read from it.
# Columns and labels:
# δ opioid receptors = biological target: T1, δ opioid receptors (Mus musculus, UniProt P32300); assay: Mouse vas deferens (MVD) bioassay, antagonism of electrically evoked contraction inhibition by δ-selective agonists; format: tissue-based; details: MVD assay, means of 3-8 determinations
# T1 construct: Bioassays Using Isolated Organ Preparations; from tissue; host or cells: mouse vas deferens (isolated organ)
# Source text: a) Biosassys based on inhibition of electrically evoked contractions of the mouse vas deferens (MVD) and of the guinea pig ileum (GPI). In the GPI assay the opioid effect is primarily mediated by μ opioid receptors, whereas in the MVD assay the inhibition of the contractions is mostly due to interaction with δ opioid receptors.
# The GPI and MVD bioassays were carded out as reported in P. W. Schiller et al., Biochem. Biophys. Res. Commun 85, 1332-1338 (1978) and J. Di Maio et al., J. Med. Chem. 25, 1432-1438 (1982). A log dose-response curve was determind with [Leu^5 ]enkephalin as standard for each ileum and vas preparation, and IC50 values of the compounds being tested were normalized according to A. A Waterfield et al., Eur. J. Pharmacol. 58, 11-18 (1979). […] These determinations were made with the MVD assay, using three different δ-selective agonists ([Leu^5 ] enkephalin, DPDPE and [D-Ala^2 ]deltorphin I].
# μ opioid receptor = biological target: T2, μ opioid receptor (Rattus norvegicus, UniProt P33535); assay: μ opioid receptor binding assay, displacement of [3H]DAMGO from rat brain membranes
# T2 construct: Male Sprague-Dawley rats (300-350 g) from the Canadian Breeding Laboratories were decapitated and after removal of the cerebellum the brains were homogenized; from tissue; host or cells: rat brain (without cerebellum) membranes, male Sprague-Dawley
# Source text: (§1) In the case of κ-ligands guinea pig brain homogenates were used, since the relative proportion of κ-binding sites is higher in guinea pig brain than in rat brain. The experimental procedure being used in our laboratory represents a modified version of the binding assay described by Pasternak et al. (Mol. Pharmacol. 11, 340-351, (1975)). Male Sprague-Dawley rats (300-350 g) from the Canadian Breeding Laboratories were decapitated and after removal of the cerebellum the brains were homogenized in 30 volumes of ice-cold standard buffer (50 mM Tris-HCl, pH 7.7). After centrifugation at 30,000×g for 30 min at 4° C. the membranes were reconstituted in the original volume of standard buffer and incubated for 30 min at 37° C. (to realease bound endogenous ligands). […] The incubation was terminated by filtration through Batman GF/B filters under vacuum at 4° C. Following two washings with 5 ml portions of ice-cold standard buffer the filters were transferred to scintillation vials and treated with 1 ml Protosol (New England Nuclear) for 30 min prior to the addition of 0.5 ml acetic acid and 10 ml Aquasol (New England Nuclear). After shaking for 30 min the vials were counted at an efficiency of 40-45%. All experiments were performed in duplicates and repeated at least three times. […] Values of half-maximal inhibition (IC50) of specific binding were obtained graphically from semilogarithmic plots. From the measured IC50-values, binding inhibition constants (Ki) were then calculated based on Cheng and Prusoff's equation (Biochem, Pharmacol. 22, 3099-3102 (1973)). Ratios of the Ki -values in the μ-, δ- and κ-representative binding assays are a measure of the receptor selectivety of the compound under investigation (e.g. Ki^μ /Ki^δ indicates the selectivity for δ-receptors versus μ-receptors).
# δ opioid receptor = biological target: T3, δ opioid receptor (Rattus norvegicus, UniProt P33533); assay: δ opioid receptor binding assay, displacement of δ-selective radioligand from rat brain membranes; details: for Ki^μ /Ki^δ: δ-selectivity ratio
# T3 construct: Male Sprague-Dawley rats (300-350 g) from the Canadian Breeding Laboratories were decapitated and after removal of the cerebellum the brains were homogenized; from tissue; host or cells: rat brain (without cerebellum) membranes, male Sprague-Dawley
# Source text: as §1
# [1] = Ke (nM) against DPDPE, δ agonist DPDPE
# [2] = Ke (nM) against [D-Ala2]deltorphin I, δ agonist [D-Ala2]deltorphin I
# [3] = Ke (nM) against [Leu5]Enkephalin, δ agonist [Leu5]enkephalin
# [4] = δ agonist DPDPE, read-out: Ke (nM) against DPDPE
# [5] = δ agonist [D-Ala2]deltorphin I, read-out: Ke (nM) against [D-Ala2]deltorphin I
# [6] = δ agonist [Leu5]enkephalin, read-out: Ke (nM) against [Leu5]Enkephalin
# [7] = rat brain membranes, means of 3 determinations, read-out: Ki^μ
# [8] = rat brain membranes, means of 3 determinations, read-out: Ki^.xi.
# T3 sequence (P33533 whole entry): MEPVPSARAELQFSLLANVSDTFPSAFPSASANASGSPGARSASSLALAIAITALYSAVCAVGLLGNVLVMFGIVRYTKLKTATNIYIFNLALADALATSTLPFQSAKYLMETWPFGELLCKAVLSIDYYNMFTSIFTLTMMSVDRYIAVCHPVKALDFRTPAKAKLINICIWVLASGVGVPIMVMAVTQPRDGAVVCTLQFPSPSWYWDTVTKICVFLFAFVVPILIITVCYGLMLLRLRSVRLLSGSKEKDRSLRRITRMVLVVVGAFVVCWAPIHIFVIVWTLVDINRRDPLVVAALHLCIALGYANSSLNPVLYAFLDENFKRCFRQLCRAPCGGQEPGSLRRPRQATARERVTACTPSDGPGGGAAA
# T1 sequence (P32300 whole entry): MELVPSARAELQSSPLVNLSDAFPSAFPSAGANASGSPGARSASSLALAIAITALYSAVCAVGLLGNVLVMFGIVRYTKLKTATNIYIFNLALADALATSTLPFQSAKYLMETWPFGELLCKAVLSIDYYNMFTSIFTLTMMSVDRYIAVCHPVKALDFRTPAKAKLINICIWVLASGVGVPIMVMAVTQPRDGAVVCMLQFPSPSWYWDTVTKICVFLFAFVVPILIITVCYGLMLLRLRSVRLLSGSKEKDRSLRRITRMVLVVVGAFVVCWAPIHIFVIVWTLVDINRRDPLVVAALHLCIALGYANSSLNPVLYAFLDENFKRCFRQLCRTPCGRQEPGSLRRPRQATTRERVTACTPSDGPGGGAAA
# T2 sequence (P33535 whole entry): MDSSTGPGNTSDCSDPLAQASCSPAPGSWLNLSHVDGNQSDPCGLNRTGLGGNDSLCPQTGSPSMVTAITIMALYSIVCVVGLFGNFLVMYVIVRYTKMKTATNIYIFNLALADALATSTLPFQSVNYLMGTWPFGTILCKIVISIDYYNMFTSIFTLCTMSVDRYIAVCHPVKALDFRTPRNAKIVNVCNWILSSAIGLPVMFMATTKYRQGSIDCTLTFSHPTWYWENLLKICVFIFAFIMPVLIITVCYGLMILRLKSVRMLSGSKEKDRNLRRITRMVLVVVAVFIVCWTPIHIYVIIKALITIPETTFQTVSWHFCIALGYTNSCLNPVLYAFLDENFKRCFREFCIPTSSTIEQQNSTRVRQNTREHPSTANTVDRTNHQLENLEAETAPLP
Structure (SMILES),Kb (δ opioid receptors; [1]) [nM],Kb (δ opioid receptors; [2]) [nM],Kb (δ opioid receptors; [3]) [nM],Ki (μ opioid receptor) [nM],Ki (δ opioid receptor) [nM],Ki^μ /Ki^δ (δ opioid receptor),Kb (δ opioid receptors; [4]) [nM],Kb (δ opioid receptors; [5]) [nM],Kb (δ opioid receptors; [6]) [nM],Ki (μ opioid receptor; [7]) [nM],Ki (δ opioid receptor; [8]) [nM]
"N[C@@H](Cc1ccc(O)cc1)C(=O)N1Cc2ccccc2C[C@H]1C(=O)N[C@H](C(=O)N[C@@H](Cc1ccccc1)C(=O)O)c1ccccc1 [HTyrTicPhgPheOH, H-Tyr-Tic-Phg-Phe-OH] (HELM PEPTIDE1{Y.[Tic].[Phg].F}$$$$V2.0)",21.5,8.31,13.8,29000,3.01,9630,,,,,
"CC(C)[C@H](NC(=O)[C@H](Cc1ccccc1)NC(=O)[C@H](Cc1ccccc1)NC(=O)[C@@H]1Cc2ccccc2CN1C(=O)[C@@H](N)Cc1ccc(O)cc1)C(=O)N[C@H](C(=O)NCC(N)=O)C(C)C [HTyrTicPhePheValValGlyNH2, H-Tyr-Tic-Phe-Phe-Val-Val-Gly-NH2] (HELM PEPTIDE1{Y.[Tic].F.F.V.V.G.[am]}$$$$V2.0)",6.36,4.96,6.48,3290,1.43,2300,,,,,
"NC(=O)[C@H](Cc1ccccc1)NC(=O)[C@H](Cc1c[nH]c2ccccc12)NC(=O)[C@@H]1Cc2ccccc2CN1C(=O)[C@@H](N)Cc1ccc(O)cc1 [HTyrTicTrpPheNH2, H-Tyr-Tic-Trp-Phe-NH2] (HELM PEPTIDE1{Y.[Tic].W.F.[am]}$$$$V2.0)",4.65,2.31,3.24,,,709,,,,,
"Cc1cc(O)cc(C)c1C[C@H](N)C(=O)N1Cc2ccccc2C[C@H]1CN[C@@H](Cc1ccccc1)C(=O)N[C@@H](Cc1ccccc1)C(=O)O [HDmtTic.psi.[CH2NH]PhePheOH, H-Dmt-Tic.PSI.[CH2 --NH]Phe-Phe-OH]",0.196,0.157,0.259,95.5,1.7,,,,,,
"N[C@@H](Cc1ccc(O)cc1)C(=O)N1Cc2ccccc2C[C@H]1C(=O)N[C@@H](Cc1cccc2ccccc12)C(=O)N[C@@H](Cc1ccccc1)C(=O)O [HTyrTic-1-NalPheOH, H-Tyr-Tic-1-Nal-Phe-OH] (HELM PEPTIDE1{Y.[Tic].[O=C([C@H](Cc1cccc2ccccc12)N[*:1])[*:2]].F}$$$$V2.0)",,,,1120,1.14,982,,,,,
"N[C@@H](Cc1ccc(O)cc1)C(=O)N1Cc2ccccc2C[C@H]1CN[C@@H](Cc1ccccc1)C(=O)O [HTyrTic-.psi.[CH2NH]PheOH, H-Tyr-Tic.PSI.[CH2 -NH]Phe-OH]",,,,,,,9.06,8.24,9.12,10800,1.94
"NC(=O)[C@H](CO)NC(=O)[C@@H]1CCCN1C(=O)[C@H](Cc1ccc(O)cc1)NC(=O)[C@H](Cc1ccccc1)NC(=O)[C@H](Cc1ccccc1)NC(=O)[C@@H]1Cc2ccccc2CN1C(=O)[C@@H](N)Cc1ccc(O)cc1 [HTyrTicPhePheTyrProSerNH2, H-Tyr-Tic-Phe-Phe-Tyr-Pro-Ser-NH2] (HELM PEPTIDE1{Y.[Tic].F.F.Y.P.S.[am]}$$$$V2.0)",4.63,3.9,4.78,658 ± 136,0.9,731,,,,,
"N=C(N)NCCC[C@H](N)C(=O)N[C@@H](Cc1ccc(O)cc1)C(=O)N1Cc2ccccc2C[C@H]1C(=O)N[C@@H](Cc1ccccc1)C(=O)N[C@@H](Cc1ccccc1)C(N)=O [HArgTyrTicPhePheNH2, H-Arg-Tyr-Tic-Phe-Phe-NH2] (HELM PEPTIDE1{R.Y.[Tic].F.F.[am]}$$$$V2.0)",,,,,,22.3,,,,107 ± 2,4.79
"N[C@@H](Cc1ccc(O)cc1)C(=O)N1Cc2ccccc2C[C@H]1C(=O)N[C@@H](Cc1c[nH]cn1)C(=O)N[C@@H](Cc1ccccc1)C(=O)O [HTyrTicHisPheOH, H-Tyr-Tic-His-Phe-OH] (HELM PEPTIDE1{Y.[Tic].H.F}$$$$V2.0)",18.2,18.7,20.1,17000,1.48,11500,,,,,
"N[C@@H](Cc1ccc(O)cc1)C(=O)N1Cc2ccccc2C[C@H]1C(=O)N[C@@H](Cc1ccccc1)C(=O)O [HTyrTicPheOH, H-Tyr-Tic-Phe-OH] (HELM PEPTIDE1{Y.[Tic].F}$$$$V2.0)",16.1,12.6,11.7,,,141,,,,1280,9.07
"NC(=O)[C@H](Cc1c[nH]c2ccccc12)NC(=O)[C@H](Cc1ccccc1)NC(=O)[C@@H]1Cc2ccccc2CN1C(=O)[C@@H](N)Cc1ccc(O)cc1 [HTyrTicPheTrpNH2, H-Tyr-Tic-Phe-Trp-NH2] (HELM PEPTIDE1{Y.[Tic].F.W.[am]}$$$$V2.0)",41.3,38.6,49.5,,,258,,,,,
"CN(C[C@@H]1Cc2ccccc2CN1C(=O)[C@@H](N)Cc1ccc(O)cc1)[C@@H](Cc1ccccc1)C(=O)N[C@@H](Cc1ccccc1)C(=O)O [HTyrTic.psi.[CH2NCH3]PhePheOH, H-Tyr-Tic.PSI.[CH2 --NCH3 ]Phe-Phe-OH]",,,,,,,4.76,2.89,6.28,13400,0.842
"CN[C@@H](Cc1ccc(O)cc1)C(=O)N1Cc2ccccc2C[C@H]1C(=O)N[C@@H](Cc1ccccc1)C(=O)N[C@@H](Cc1ccccc1)C(=O)O [Tyr(N^α Me)-TicPhePheOH, Tyr(N^α Me)-Tic-Phe-Phe-OH] (HELM PEPTIDE1{[meY].[Tic].F.F}$$$$V2.0)",1.22,0.436,1.01,13400,1.29,,,,,,
"N[C@@H](Cc1ccc(O)cc1)C(=O)N1Cc2ccccc2C[C@H]1C(=O)N[C@@H](Cc1ccc2ccccc2c1)C(=O)N[C@@H](Cc1ccccc1)C(=O)O [HTyrTic-2-NalPheOH, H-Tyr-Tic-2-Nal-Phe-OH] (HELM PEPTIDE1{Y.[Tic].[O=C([C@H](Cc1ccc2ccccc2c1)N[*:1])[*:2]].F}$$$$V2.0)",4.41,4.17,2.64,6330,1.31,4830,,,,,
"CCCCCCN[C@@H](Cc1ccc(O)cc1)C(=O)N1Cc2ccccc2C[C@H]1C(=O)N[C@@H](Cc1ccccc1)C(=O)N[C@@H](Cc1ccccc1)C(=O)O [Tyr(N^α Hex)-TicPhePheOH, Tyr(N^α Hex)-Tic-Phe-Phe-OH]",4.28,10.6,9.37,1080,0.951,,,,,,
"NC(=O)[C@H](Cc1ccccc1)NC(=O)[C@@H]1Cc2ccccc2CN1C(=O)[C@@H](N)Cc1ccc(O)cc1 [HTyrTicPheNH2, H-Tyr-Tic-Phe-NH2] (HELM PEPTIDE1{Y.[Tic].F.[am]}$$$$V2.0)",96.8,58.9,43.9,,,52.0,,,,,
"NC(=O)[C@H](Cc1ccccc1)NC(=O)[C@H](Cc1ccccc1)NC(=O)[C@@H]1Cc2ccccc2CN1C(=O)[C@@H](N)Cc1ccc(O)cc1 [HTyrTicPhePheNH2, H-Tyr-Tic-Phe-Phe-NH2] (HELM PEPTIDE1{Y.[Tic].F.F.[am]}$$$$V2.0)",,14.4,15.7,,,,18,,,78.8,3
"N[C@@H](Cc1ccc(O)cc1)C(=O)N1Cc2ccccc2C[C@H]1C(=O)N[C@@H](CCc1ccccc1)C(=O)N[C@@H](Cc1ccccc1)C(=O)O [HTyrTicHfePheOH, H-Tyr-Tic-Hfe-Phe-OH] (HELM PEPTIDE1{Y.[Tic].[O=C([C@H](CCc1ccccc1)N[*:1])[*:2]].F}$$$$V2.0)",0.609,0.408,1.23,1990,0.277,7180,,,,,
